Measured values taken from patent publication US20040198756A1, “Medicaments” (priority 2001, published 2004).
Where a name gives a salt, the structure may show the parent alone.

assay: MIC of test compounds against various organisms; type: cell-based; conditions: bound holds for all 11 organisms of the panel; read-out: MIC versus all these organisms
Method: The MIC (jig/ml) of test compounds against various organisms was determined:
S. aureus Oxford, S. aureus WCUH29, S. pneumoniae 1629, S. pneumoniae N1387, S. pneumoniae ERY 2, E. faecalis I, E. faecalis 7, H. influenzae Ql, H. influenzae NEMC1, M. catarrhalis 1502, E. coli 7623.

Compound | MIC
COc1ccc2nccc(CCC3(O)CCN(C[C@H](O)c4ccc5c(c4)NC(=O)CS5)CC3)c2n1 (racemic) [Example 27, 6-((R,S)-1-Hydroxy-2-(4-hydroxy-4-[2-(6-methoxy-[1,5]naphthyridin-4-yl)ethyl]piperidin-1yl}ethyl)-4H-benzo[1,4]thiazin-3-one] | ≤ 4 µg/mL
COc1ccc2nccc(NC(=O)C3(OC)CCN(C[C@H](O)c4ccc5c(n4)NC(=O)CS5)CC3)c2n1 (racemic) [Example 23, 4-Methoxy-1-[2-(RS)-2-hydroxy-2-(3-oxo-3,4-dihydro-2H-pyrido[3,2-b][1,4]-thiazin-6-yl)-ethyl]-piperidine-4-carboxylic acid (6-methoxy-[1,5]naphthyridinyl)amide dihydrochloride] | ≤ 4 µg/mL
COc1ccc2nccc(NC(=O)C3(O)CCN(CCc4cc5c(cn4)OCCO5)CC3)c2n1 [Example 25, 1-[2-(2,3-Dihydro-[1,4]dioxino[2,3-c]pyridin-7-yl)-ethyl]4-hydroxy-piperidine-4-carboxylic acid(6-methoxy-[1,5]naphthyridin-4-yl)-amide hydrochloride] | ≤ 4 µg/mL
COc1ccc2nccc(NC(=O)C3(OC)CCN(C[C@@H](O)c4ccc5c(c4)OCCO5)CC3)c2n1 [Example 17, 1-[2-(2,3-Dihydro-benzo[1,4]dioxin-6-yl)-2-R,S-hydroxy-ethyl]-4-methoxy-piperidine-4-carboxylic acid (6-methoxy-[1,5]naphthyridin-4-yl)-amide dihydrochloride] | ≤ 16 µg/mL
COc1ccc2nccc(CCC3(O)CCN(CCc4ccc5c(c4)NC(=O)CS5)CC3)c2n1 [Example 28, 6-(2-{4-hydroxy-4-[2-(6-methoxy-[1,5]naphthyridin-4-yl)ethyl]piperidin-1yl}ethyl)-4H-benzo[1,4]thiazin-3-one] | ≤ 4 µg/mL

same assay, conditions: bound holds only for some of the 11 organisms of the panel; read-out: MIC versus some of these organisms

Compound | MIC
COc1ccc2nccc(NC(=O)[C@@]3(O)CCN(CCc4ccc5c(c4)NC(=O)CS5)C[C@@H]3OC)c2n1 [Example 19, 4-R/S-Hydroxy-3-S/R-methoxy-1-[2-(3-oxo-3,4-dihydro-2H-benzo[1,4]thiazin-6-yl)-ethyl]-piperidine-4-carboxylic acid (6-methoxy-[1,5]naphthyridinyl)-amide dihydrochloride] | ≤ 64 µg/mL

same assay, conditions: read-out: MIC versus all these organisms

Compound | MIC
COc1ccc2nccc(NC(=O)C3(C)CCN(CCc4ccc5c(c4)NC(=O)CS5)CC3)c2n1 [Example 1, 4-Methyl-1-[2-(3-oxo-3,4-dihydro-2H-benzo[1,4]thiazin-6-yl)-ethyl]-piperidine-4-carboxylic acid (6-methoxy-[1,5]naphthyridin-4-yl)amide oxalate] | ≤ 4 µg/mL
COc1ccc2nccc(NC(=O)C3(O)CCN(CC(=O)c4ccc5c(c4)NC(=O)CS5)CC3)c2n1 [Example 8, 4-Hydroxy-1-[2-oxo-2-(3-oxo-3,4-dihydro-2H-benzo[1,4]thiazin-6-yl)-ethyl]-piperidine-4-carboxylic acid (6-methoxy-[1,5]naphthyridin-4-yl)-amide oxalate] | ≤ 64 µg/mL
COc1ccc2nccc(NC(=O)C3(O)CCN(CCc4ccc5c(c4)NC(=O)CS5)CC3)c2n1 [Example 5, 4-Hydroxy-1-[2-(3-oxo-3,4-dihydro-2H-benzo[1,4]thiazin-6-yl)-ethyl]-piperidine-4-carboxylic acid (6-methoxy-[1,5]naphthyridin-4-yl)-amide oxalate] | ≤ 64 µg/mL
COc1ccc2nccc(NC(=O)C3(C)CCN(CCc4ccc5c(c4)OCO5)CC3)c2n1 [Example 4, 1-(2-Benzo[1,3]dioxol-5-yl-ethyl)4-methylpiperidine-4-carboxylic acid (6-methoxy-[1,5]naphthyridin-4-yl)-amide oxalate] | ≤ 16 µg/mL
COc1ccc2nccc(NC(=O)C3(CO)CCN(CCc4ccc5c(c4)NC(=O)CS5)CC3)c2n1 [Example 10, 4-Hydroxymethyl-1-[2-(3-oxo-3,4-dihydro-2H-benzo[1,4]thiazin-6-yl)-ethyl]-piperidine-4-carboxylic acid (6-methoxy-[1,5]naphthyridin-4-yl)-amide oxalate] | ≤ 4 µg/mL
